Values joined by “and” are separate entries in the source; they are usually repeats but may differ in a detail not shown here. Equal entries are not always repeated. Where two headings read alike, the source gives them in different places.
Columns and labels:
R17 = assay: r-17 bacteriophage assay: R17 treated with compound and UVA, remaining titer by plaque count on Hfr 3000 bacteria; type: cell-based
Protocol: In the r-17 assay, the bacteriophage was placed in a solution with each compound tested and was then irradiated. The ability of the phage to subsequently infect bacteria and inhibit their growth was measured. The bacteriophage was selected for its relatively accessible nucleic acid such that the culture growth inhibition would accurately reflect nucleic acid damage by the test compounds. The bacteriophage assay for nucleic acid binding to test compounds offers a safe and inexpensive procedure to identify compounds likely to display efficient pathogen inactivation. Previous experiments support that the r-17 assay accurately measures HIV-1 sensitivity to similar compounds. […] Modified Eagles Medium (DMEM) to a final phage concentration of 10^9/mL. An aliquot (0.5 mL) was transferred to a 1.5 mL snap-top polyethylene tube. […] Louis, MO). The tubes were placed in a light device as described in EXAMPLE 1 and irradiated for between 1 and 10 minutes. […] To make the dilutions. a 0.100 mL aliquot of the irradiated solution of phage and test compound was added to the first dilution tube of 0.4 mL of media then 0.020 mL of this solution was added to the second tube of 0.5 mL medium (1:25). […] After the top agar hardened, the plates were incubated at 37 °C overnight. The plaque forming units were then counted the following morning and the titer of the phage remaining after phototreatment was calculated based on the dilution factors. The following controls were run: the "phage only" in which phage was not treated with test compound and not irradiated (listed as "starting titer" in the tables below); the "UV only" in which the phage was irradiated in the absence of test compound; and the "dark" control in which the phage/test compound solution was not irradiated before it was diluted and plated. Compounds described herein were also tested at a constant concentration for varying doses of UV light. […] The compound tested was added at the desired concentration and the samples were vortexed. […] Between each 1.0 J/cm^2 intervals, 100µL was removed from each sample and placed in the first corresponding dilution tube, then five sequential dilutions were performed for each compound tested, at all 3 irradiation doses, as described above in this example. […] The contents of each tube was poured into its own LB plate and the plates were incubated overnight at 37 °C. Plaques were counted by visual inspection the following morning.

Pseudomonas = assay: Bacterial inactivation by compound plus UVA, colony forming units; type: cell-based; conditions: 16 µM; 5 J/cm^2 irradiation; starting titer 6.5 logs
Protocol: In this example bacterial inactivation by the photoreactive nucleic acid binding compounds described herein was measured as a function of the ability of the bacteria to subsequently replicate. A gram negative bacteria was chosen as representative of the more difficult bacterial strains to inactivate.
The bacteria a strain of Pseudomonas, was inoculated into LB with a sterile loop and grown overnight in a shaker at 37°C. Based on the approximation that one OD at 610 nm is equivalent to 5 x 10^8 colony forming units (cfu)/mL, a 1:10 dilution of the culture was measured on a spectrophotometer. (manufactured by Shimatsu). The bacterial culture was added to a solution of 15% fetal bovine serum in DMEM to a final bacteria concentration of approximately 10^6/mL. An aliquot (0.8 mL) was transferred to a 1.5 mL snap-top polyethylene tube. An aliquot (0.004-0.040 mL) of the test compound stock solution prepared in water, ethanol or dimethylsulfoxide at 0.80-8.0 mM was added to the tube. Compounds were tested at a concentration of 16 µM. The tubes were placed in a light device as described in EXAMPLE I and irradiated with 1.3 J/cm^2, 1.2 J/cm^2, and finally 2.5 J/cm^2, for a total of 5 J/cm^2. 150 µL were removed for testing after each pulse period. Sterile 13 mL dilution tubes were prepared; each test compound required one tube with 0.4 mL of LB broth and four tubes containing 0.5 mL of LB broth. To make the dilutions, a 0.050 mL aliquot of the irradiated solution of phage and test compound was added to the first dilution tube of […] of media then 0.050 mL of this solution was added to the second tube of 0.5 mL medium (1:10). The second solution was then diluted serially (1:10) into the remaining tubes. 100 µL of the original sample and each dilution are plated separately onto LB agar plates and incubated at 37 °C overnight. The colony forming units were then counted the following morning and the titer of the phage remaining after phototreatment was calculated based on the dilution factors.
The following controls were run: the "bacteria only" in which bacteria was not treated with test compound and not irradiated (listed as "starting titer" in the tables below); the "UV only" in which the bacteria was irradiated in the absence of test compound. Dark controls were not performed here for reasons set forth in Example 12 above.

[1] = tested on: Salmonella typhimurium tester strains TA97a, TA98, TA100, TA102, TA1537 and TA1538; conditions: for base-substitution mutagenicity (Ames, summary): TA100, TA102
Excerpt: The second property that is important in testing a compound for use in methods described herein is mutagenicity. The most widely used mutagen/carcinogen screening assay is the Ames test. This assay is described by D.M. Maron and B.N. Ames in Mutation Research 113:173 ( 1983) and a specific screen is described in detail in Example 17, below. The Ames test utilizes several unique strains of Salmonella typhimurium that are histidine- dependent for growth and that lack the usual DNA repair enzymes. The frequency of normal mutations that render the bacteria independent of histidine (i.e., the frequency of spontaneous revertants) is low. The test allows one to evaluate the impact of a compound on this revenant frequency.
Because some substances are not mutagenic by themselves, but are converted to a mutagen by metabolic action, the compound to be tested is mixed with the bacteria on agar plates along with the liver extract. The liver extract serves to mimic metabolic action in an animal.
The mixtures are allowed to incubate. Growth of bacteria (if any) is checked by counting colonies.
In this example the compounds described herein are tested for their dark mutagenicity using an Ames assay. The procedures used for the Salmonella mutagenicity test as described in detail by Maron and Ames were followed exactly. Maron, D.M. and B.N. Ames, Mutation Research 113: 173 ( 1983). A brief description for each procedure is given here. The tester strains TA97a, TA98, TA 100, TA102, TA1537 and TA1538 were obtained from Dr. Ames. TA97a, TA98, TA1537 and TA1538 are frameshift tester strains. TA100 and TA102 are base-substitution tester strains. Upon receipt each strain was cultured under a variety of conditions to confirm the genotypes specific to the strains.
The first tests done with the strains were to determine the range of spontaneous reversion for each of the strains. With each mutagenicity experiment the spontaneous reversion of the tester strains to histidine independence was measured and expressed as the number of spontaneous revertants per plate. This served as the background controls.
For all experiments, the pre-incubation procedure was used. In this procedure one vial of each tester strain was thawed and 20 µL of this culture was added to 6 mL of Oxoid Nutrient Broth #2. This solution was allowed to shake for 10 hours at 37°C. In the pre-incubation procedure, 0.1 mL of this overnight culture was added to each of the required number of sterile test tubes. To half of the tubes 0.5 mL of a 10% S-9 solution containing Aroclor 1254 induced rat liver extract (Molecular Toxicology Inc., Annapolis, MD), and MgCl2, KCl, glucose-6-phosphate, NADP, and sodium phosphate buffer (Sigma, St. Louis, Missouri) were added. To the other half of the tubes 0.5 mL of 0.2M sodium phospate buffer, pH 7.4, was used in place of the S-9 mixture (the - S9 samples). Finally 0.1 mL of the test solution containing either 0, 0.1, 0.5, 1, 5, 10, 50, 100, 250, or 500 µg/mL of the test compound was added. The 0.7 mL mixture was vonexed and then pre-incubated while shaking for 20 minutes at 37°C. After shaking, 2 mL of molten top agar supplemented with histidine and biotin were added to the 0.7 mL mixture and immediately poured onto a minimal glucose agar plate (volume of base agar was 20 mL). The top agar was allowed 30 minutes to solidify and then the plates were inverted and incubated for 44 hours at 37°C. After incubation the number of revertant colonies on each plate were counted.
Maron and Ames (1983) describe the conflicting views with regard to the statistical treatment of data generated from the test.

Male Balb/c mice = tested on: Male Balb/c mice
Protocol: Male Balb/c mice were then injected with 0.1 ml of a compound solution via the tail vein. At least 3 mice were injected per dose level Saline only was used as a negative control. For a positive control, cyclophosphamide (cycloPP) was administered at a dose of 30 mg/kg. In the experimental group, the injections were repeated once per day for four days. In the positive control group, the sample was administered only once, on day three. On day 5, several microliters of blood were withdrawn from each subject and smeared on a glass slide. Cells were fixed in absolute methanol and stored in a slide rack.
For analysis, cells were stained with acridine orange and visualized under a fluorescence microscope by counting: (i) the number of reticulocytes per 5000 erythrocytes; and (ii) the number of micronucleated reticulocytes per 1000 reticulocytes. Reticulocytes were distinguished by their red fluorescence due to the presence of RNA. Micronuclei were distinguished by their green fluorescence due to the presence of DNA. The percentage of reticulocytes (%PCE) was then calculated. A decrease in the frequency of erythrocytes, represented by an increase in the percentage of reticulocytes, is an indication of bone marrow toxicity. The percentage of reticulocytes with micronuclei (%PCE with MN) was also calculated. An increase in %PCE with MN is a measure of elastogenicity.
After initial results were determined, the experiment was repeated using increased dose levels, until: (i) Micronucleus formation was seen; or (ii). Bone marrow toxicity was observed; or (iii) The lethal dose was reached; or (iv) A dose of 5 g/kg was administered.

HIV-1 = conditions: 1 Minute Irradiation
Protocol: Pathogen inactivation efficiency of several compounds described herein was evaluated by examining the ability of the compounds to inactivate cell-free virus (HIV). Inactivation of cell-free HIV was performed as follows.
As in the R17 assay, small aliquots of the compounds listed in TABLES 10 and 11, below, at the concentrations listed in the table, were added to stock HIV-1 to a total of 0.5 mL. The stock HIV (10^5 - 10^7 plaque forming units/mL) was in DMEM/15% FBS. […] Controls included HIV-I stock only, HIV-1 plus UVA only, and HIV-I plus the highest concentration of each psoralen tested, with no UVA. Post irradiation. all samples were store frozen at -70° C until assayed for infectivity by a microtiter plaque assay. Aliquots for measurement of residual HIV infectivity in the samples treated with a compound of the present invention were withdrawn and cultured.
Residual HIV infectivity was assayed using an MT-2 infectivity assay. […] The assay medium was 85% DMEM (with a high glucose concentration) containing 100 µg of streptomycin, 100 U of penicillin, 50 µg of gentamicin, and 1 µg of amphotericin B per mL, 15% FBS and 2 µg of Polybrene (Sigma Chemical Co., St. Louis, Mo.) per mL. Test and control samples from the inactivation procedure were diluted in 50% assay medium and 50% normal human pooled plasma. The samples were serially diluted directly in 96-well plates (Coming Glass Works, Coming, N.Y.). The plates were mixed on an oscillatory shaker for 30 seconds and incubated at 37°C in a 5% CO2 atmosphere for 1 to 18 hours. […] After an additional 1 hour of incubation at 37°C in 5% CO2, 0.075 mL of assay medium containing 1.6% SeaPlaque agarose (FMC Bioproducts, Rockland, Maine) and prewarmed to 38.5°C was added to each well. The plates were kept at 37°C for a few minutes until several plates had accumulated and then centrifuged in plate carriers at 600 x g for 20 minutes in a centrifuge precooled to 10°C. In the centrifuge, cell monolayers formed prior to gelling of the agarose layer. The plates were incubated for 5 days at 37°C in 5% CO2 and stained by the addition of 0.05 mL of 50 µg/mL propidium iodide (Sigma Chemical Co.) in phosphate-buffered saline (pH 7.4) to each well. After 24 to 48 hours, the red fluorescence-stained microplaques were visualized by placing the plates on an 8,000 µW/cm^2 304 nm UV light box (Fotodyne, Inc., New Berlin, Wis.). The plaques were counted at a magnification of x20 to x25 through a stereomicroscope.

[2] = two-fold or greater increase in revertants above background and dose dependent response
[3] = positive control, Dose 30 mg/kg administered only once, on day three, one value per experiment, 30 mg/kg
[4] = 64 µM, HIV Starting Titer Approximately 5 Logs (Table 10)

Compound: COc1c2occc2cc2ccc(=O)oc12 [Compound 8-MOP, 8-Methoxypsoralen, reference compound]
- R17 log kill (32 µM) (R17; 32 µM, 1 Minute Irradiation, Starting Titer Approx. 7.5 Logs (Table 6)): 0
- log kill of bacteria (Pseudomonas) (Pseudomonas): 1.9 logs
- base-substitution mutagenicity (Ames, summary) [1, 2]: weak base-substitution mutagen in TA102 at 500µg/plate

Compound: O=P1(N(CCCl)CCCl)NCCCO1 (stereo not drawn) [CycloPP, cyclophosphamide, reference compound]
- PCE + MN (%) (Male Balb/c mice; [3]): 1.98 ± 0.40% and 1.76 ± 0.64%
- PCE/RBC (%) (Male Balb/c mice; [3]): 1.39 ± 0.41% and 1.65 ± 0.64% and 0.99 ±0.33%

Compound: Cc1oc2c(C)c3oc(=O)cc(C)c3cc2c1CNCCN [Compound 1, 4'-(4-amino-2-aza)butyl-4,5',8-trimethylpsoralen]
- Logs Killed (R17; Experiment 2, compound only (3.2 µM), no uva): 0.1
- revertant colonies, TA100 +S9 ([1]; 5 µg/plate): -24
- revertant colonies, TA100 -S9 ([1]; 5 µg/plate): 292
- revertant colonies, TA1538 +S9 ([1]; 5 µg/plate): 21
- revertant colonies, TA1538 -S9 ([1]; 5 µg/plate): 10
- revertant colonies, TA100 +S9 ([1]; 10 µg/plate): -22
- revertant colonies, TA100 -S9 ([1]; 10 µg/plate): 337
- revertant colonies, TA1538 +S9 ([1]; 10 µg/plate): 22
- revertant colonies, TA1538 -S9 ([1]; 10 µg/plate): 12
- frameshift mutagenicity (Ames, summary) [1, 2]: weak frameshift mutagen in TA1538 at 5 µg/plate in the presence of S9
- base-substitution mutagenicity (Ames, summary) [1, 2]: displayed mutation in the TA100 strain, but only in the absence of S9
- HIV Log Kill (HIV-1; [4]): 2.1

Compound: Cc1oc2c(C)c3oc(=O)cc(C)c3cc2c1CCN [Compound 3, 4'-(2-aminoethyl)-4,5',8-trimethylpsoralen]
- R17 Log Kill (R17; 8 µM, 1 Minute Irradiation, Starting Titer Approx. 7.2 Logs (Table 7)): >6.2
- R17 Log Kill (R17; 8 µM, 1 Minute irradiation = 1.2 J/cm^2, Starting Titer Approx. 7.1 Logs (Table 8)): 5.6
- R17 Log Kill (R17; 16 µM, 1 Minute Irradiation, Starting Titer Approx. 7.2 Logs (Table 7)): >6.2
- R17 Log Kill (R17; 16 µM, 1 Minute irradiation = 1.2 J/cm^2, Starting Titer Approx. 7.1 Logs (Table 8)): >6.1
- R17 Log Kill (R17; 32 µM, 1 Minute Irradiation, Starting Titer Approx. 7.2 Logs (Table 7)): >6.2
- R17 inactivation efficiency compared with AMT (R17; varying concentration (Tables 7 and 8, FIGS. 6-10)): significantly higher inactivation efficiency than does AMT
- revertant colonies, TA100 +S9 ([1]; 5 µg/plate): -19
- revertant colonies, TA100 -S9 ([1]; 5 µg/plate): 47
- revertant colonies, TA1538 +S9 ([1]; 5 µg/plate): 1
- revertant colonies, TA1538 -S9 ([1]; 5 µg/plate): 0
- revertant colonies, TA100 +S9 ([1]; 10 µg/plate): 8
- revertant colonies, TA100 -S9 ([1]; 10 µg/plate): 47
- revertant colonies, TA1538 +S9 ([1]; 10 µg/plate): 9
- revertant colonies, TA1538 -S9 ([1]; 10 µg/plate): -6
- mutagenic response (Ames, summary) [1, 2]: no mutagenicity
- HIV Log Kill (HIV-1; 32 µM, HIV Starting Titer Approximately 5 Logs (Table 10)): 2.7
- HIV Log Kill (HIV-1; [4]): >3.8

Compound: Cc1cc(=O)oc2c(C)c3oc(CNCCCCN)c(C)c3cc12 [Compound 17, 5'-(6-amino-2-aza)hexyl-4,4',8-trimethylpsoralen]
- efficiency at inactivating R17 compared with AMT (R17; constant concentration, varying doses of UV light 1.0-3.0 J/cm^2 (FIGS. 11-17)): more efficient at inactivating R17 than was AMT
- bone marrow toxicity or micronucleus formation (Male Balb/c mice; experiment repeated using increased dose levels): the acutely lethal dose was reached before there were any signs of bone marrow toxicity or micronucleus formation
- HIV Log Kill (HIV-1; 16 µM, HIV Starting Titer Approximately 5.4 Logs (Table 11)): 1.2
- HIV Log Kill (HIV-1; 32 µM, HIV Starting Titer Approximately 5.4 Logs (Table 11)): 2.9
- HIV Log Kill (HIV-1; 64 µM, HIV Starting Titer Approximately 5.4 Logs (Table 11)): 3.4
